According to patent US11292760B2, “Therapeutic acrylates as enhanced medical adhesives” (Carnegie Mellon University, priority 2016, dated 2022):

What was measured:
[1] = Time-lapse 1H NMR of hydrolysis after exposure to D2O; assay type: physicochemical; conditions: monomer dissolved in CDCl3, 1H NMR
Method: […] One drop of deuterium oxide (D2O, EMD Millipore) was then added and the sample inverted gently once to mix. Spectra were recorded immediately, then periodically for the next two hours.

[2] = Solubility of TMA monomer in adhesive monomers; assay type: physicochemical

SMILES	time course of anhydride bond hydrolysis after exposure to D2O [1]	solubility in methyl methacrylate monomer ([2]; commercial formulation)	solubility in n-butyl cyanoacrylate ([2]; commercial formulation)	solubility in BCA monomer ([2]; 25% TMA by weight in the adhesive, preliminary formulation tests)
C=C(C)C(=O)OC(=O)C(C)c1ccc(CC(C)C)cc1 (stereo not shown) [IbuMA, Ibuprofen Methacrylic Anhydride]	90 min	soluble	soluble	
C=C(C)C(=O)Nc1ccc(C(=O)OCC)cc1 [BenzMA, Benzocaine Methacrylamide]				excellent solubility
